Structures are written as SMILES.

Series [1] relates to Chronic Post-Ischemia Pain (CPIP) rats. In words: Chronic Post-Ischemia Pain (CPIP) model, von Frey. The note with it: 100 mg/kg oral, 6 hours post-dose. The series is classed as in vivo, rat. Here is the method:
All animal experiments were carried out according to the Guide for the Care and Use of Laboratory Animals (2011 edition) and approved by the Israel National Institutional Animal Care and Use Committee (IACUC). Young adult male SD rats (Envigo RMS, Israel), were used for in vivo efficacy: Spared Nerve Injury (SNI), Distal Tibial Injury (DTI) and Post-operative Pain (POP), 200-220 grams, Chronic Post-Ischemia Pain (CPIP) 275-325 grams, Monosodium iodoacetate-induced osteoarthritis (MIA-OA) 180-220 grams; for in vivo safety: 200-250 grams at study initiation. […] The health status of the animals used in this study was examined upon their arrival. Only animals in good health were acclimatized to laboratory conditions and were used in the studies. All studies were performed following at least five days of animal acclimation. During acclimation and throughout the entire study duration, animals were housed within a limited-access rodent facility and kept in groups with a maximum of 2-3 rats per polypropylene cage. The cages were fitted with solid bottoms and filled with sterile wood shavings as bedding material. […] Water was monitored periodically. […]
On study day 14, the animal's response to von Frey filaments was measured. […]

Series [2] relates to rats. The experiment in a line: Modified Irwin test. The series is classed as in vivo, rat. The settings on record: up to 300 mg/kg, male and female.
Protocol: Twenty male and twenty female Sprague Dawley rats from Envigo were used in the study. […] Rats were housed in cages containing BedO'Cob® bedding with Nylabones® for enrichment. All rats were examined, handled, and weighed prior to initiation of the study to ensure adequate health and suitability. During the study, 12/12 light/dark cycles were maintained. The room temperature was maintained between 2° and 23° C. with a relative humidity maintained around 50%. […] The test was performed during the animal's light cycle phase (6 am to 6 μm), with observations targeted to be carried out between 8 am and 2 μm. Each vehicle or dose group contained 8 rats, 4 males and 4 females.
The day prior to assessment, rats were single housed in clean rat polycarbonate cages and food was removed. Animals were allocated to different groups based on body weight, under the concurrent restriction that cage mates could not be in the same treatment groups. […]
On the day of assessment, rats were scored on 39 behaviors (not shown). 1 hour prior to dosing, water was removed from the home cage baseline (BL) and behavioral observations were recorded.
Ten animals were assessed per day over 4 days. One male and one female subject from each treatment group was assessed by the observers in a pre-determined order that differed each day. […]
In series [3] the test system is rats. The experiment in a line: Rotarod assay (PSPP). The series is classed as in vivo, rat. The settings on record: up to 300 mg/kg, male and female, 1-6 hours post-dose. An excerpt:
Animals: 50 male and 50 female Sprague Dawley rats from Envigo (Frederick, MD) were used in the study. Male animals were received at body weights between approximately 200-215 grams, and female animals between 175-205 grams. All animals were housed 3 per cage (15.55×13.63×8.39 inches) and acclimated to the vivarium for 6-9 days prior to testing. All cages contained BedO'Cob® bedding with Nylabones® for enrichment. All rats were examined, handled, and weighed prior to initiation of the study to ensure adequate health and suitability. During the study, 12/12 light/dark cycles were maintained. The room temperature was maintained between […] and 23° C. with relative humidity maintained around 50%. Chow (LabDiet 5001, LabDiet, St. Louis, MO, USA) and water were provided ad libitum except where specified below. Testing was performed during the animal's light cycle phase (between 6 am and […]). Body weights were recorded prior to baseline assessment. Latency to fall off the rotating rod was the primary measure of performance.
Training: Each trial on the rotarod was identical, a 5 second ramp from 0-17 RPM followed by a period of constant velocity at 17 RPM for up to 40 seconds, for a total trial time of […].
Animals ran three training trials on Day 1 with a 30 minutes interval between training trials. […] The outcome measured was latency to fall off the rotating rod. […]

The target in a further series is P-gp (Homo sapiens, UniProt P08183). The experiment in a line: Transporter substrate, P-gp. The settings on record: role: substrate. The series is classed as in vitro ADME. As to the method: (§1) Additionally, compound 760 was tested for its capability to act as a transporter substrate for various transporters, and was not found to be a transporter substrate for any of the tested transporters.

A further series has as its target OCT1 (Homo sapiens, UniProt O15245). In words: Transporter substrate, OCT1. The series is classed as in vitro ADME. The settings on record: role: substrate. Here is the method:
as §1

Another series addresses T1, nAChR(a4/b2) (Homo sapiens, UniProt P17787+P43681).
T1 construct: Eurofins DiscoverX functional panel cells
In words: Functional selectivity panel, nAChR(a4/b2). The note with it: up to 10 micromolar. The series is classed as biochemical. As to the method:
(§2) A broad panel of 78 recombinant targets was tested for pharmacologic activity in vitro through a variety of functional assays (Eurofins DiscoverX, USA), as part of the National Institute of Neurological Disorders and Stroke (NINDS) Preclinical Screening Platform for Pain (PSPP) program. The biological targets for the in vitro profiling have been selected based on avoiding opioid receptor stimulation and targets known to be associated with adverse events or targeted by drugs of abuse. […] For each test, a reference compound was evaluated at the target of interest as a positive control.

A further series has as its target Cav1.2 (Homo sapiens, UniProt Q13936). The experiment in a line: Functional screening panel, Cav1.2. The series is classed as biochemical. The settings on record: read-out: IC/EC50 Cav1.2. Here is the method: as §2

Chain of Cav1.2 (Q13936 whole entry): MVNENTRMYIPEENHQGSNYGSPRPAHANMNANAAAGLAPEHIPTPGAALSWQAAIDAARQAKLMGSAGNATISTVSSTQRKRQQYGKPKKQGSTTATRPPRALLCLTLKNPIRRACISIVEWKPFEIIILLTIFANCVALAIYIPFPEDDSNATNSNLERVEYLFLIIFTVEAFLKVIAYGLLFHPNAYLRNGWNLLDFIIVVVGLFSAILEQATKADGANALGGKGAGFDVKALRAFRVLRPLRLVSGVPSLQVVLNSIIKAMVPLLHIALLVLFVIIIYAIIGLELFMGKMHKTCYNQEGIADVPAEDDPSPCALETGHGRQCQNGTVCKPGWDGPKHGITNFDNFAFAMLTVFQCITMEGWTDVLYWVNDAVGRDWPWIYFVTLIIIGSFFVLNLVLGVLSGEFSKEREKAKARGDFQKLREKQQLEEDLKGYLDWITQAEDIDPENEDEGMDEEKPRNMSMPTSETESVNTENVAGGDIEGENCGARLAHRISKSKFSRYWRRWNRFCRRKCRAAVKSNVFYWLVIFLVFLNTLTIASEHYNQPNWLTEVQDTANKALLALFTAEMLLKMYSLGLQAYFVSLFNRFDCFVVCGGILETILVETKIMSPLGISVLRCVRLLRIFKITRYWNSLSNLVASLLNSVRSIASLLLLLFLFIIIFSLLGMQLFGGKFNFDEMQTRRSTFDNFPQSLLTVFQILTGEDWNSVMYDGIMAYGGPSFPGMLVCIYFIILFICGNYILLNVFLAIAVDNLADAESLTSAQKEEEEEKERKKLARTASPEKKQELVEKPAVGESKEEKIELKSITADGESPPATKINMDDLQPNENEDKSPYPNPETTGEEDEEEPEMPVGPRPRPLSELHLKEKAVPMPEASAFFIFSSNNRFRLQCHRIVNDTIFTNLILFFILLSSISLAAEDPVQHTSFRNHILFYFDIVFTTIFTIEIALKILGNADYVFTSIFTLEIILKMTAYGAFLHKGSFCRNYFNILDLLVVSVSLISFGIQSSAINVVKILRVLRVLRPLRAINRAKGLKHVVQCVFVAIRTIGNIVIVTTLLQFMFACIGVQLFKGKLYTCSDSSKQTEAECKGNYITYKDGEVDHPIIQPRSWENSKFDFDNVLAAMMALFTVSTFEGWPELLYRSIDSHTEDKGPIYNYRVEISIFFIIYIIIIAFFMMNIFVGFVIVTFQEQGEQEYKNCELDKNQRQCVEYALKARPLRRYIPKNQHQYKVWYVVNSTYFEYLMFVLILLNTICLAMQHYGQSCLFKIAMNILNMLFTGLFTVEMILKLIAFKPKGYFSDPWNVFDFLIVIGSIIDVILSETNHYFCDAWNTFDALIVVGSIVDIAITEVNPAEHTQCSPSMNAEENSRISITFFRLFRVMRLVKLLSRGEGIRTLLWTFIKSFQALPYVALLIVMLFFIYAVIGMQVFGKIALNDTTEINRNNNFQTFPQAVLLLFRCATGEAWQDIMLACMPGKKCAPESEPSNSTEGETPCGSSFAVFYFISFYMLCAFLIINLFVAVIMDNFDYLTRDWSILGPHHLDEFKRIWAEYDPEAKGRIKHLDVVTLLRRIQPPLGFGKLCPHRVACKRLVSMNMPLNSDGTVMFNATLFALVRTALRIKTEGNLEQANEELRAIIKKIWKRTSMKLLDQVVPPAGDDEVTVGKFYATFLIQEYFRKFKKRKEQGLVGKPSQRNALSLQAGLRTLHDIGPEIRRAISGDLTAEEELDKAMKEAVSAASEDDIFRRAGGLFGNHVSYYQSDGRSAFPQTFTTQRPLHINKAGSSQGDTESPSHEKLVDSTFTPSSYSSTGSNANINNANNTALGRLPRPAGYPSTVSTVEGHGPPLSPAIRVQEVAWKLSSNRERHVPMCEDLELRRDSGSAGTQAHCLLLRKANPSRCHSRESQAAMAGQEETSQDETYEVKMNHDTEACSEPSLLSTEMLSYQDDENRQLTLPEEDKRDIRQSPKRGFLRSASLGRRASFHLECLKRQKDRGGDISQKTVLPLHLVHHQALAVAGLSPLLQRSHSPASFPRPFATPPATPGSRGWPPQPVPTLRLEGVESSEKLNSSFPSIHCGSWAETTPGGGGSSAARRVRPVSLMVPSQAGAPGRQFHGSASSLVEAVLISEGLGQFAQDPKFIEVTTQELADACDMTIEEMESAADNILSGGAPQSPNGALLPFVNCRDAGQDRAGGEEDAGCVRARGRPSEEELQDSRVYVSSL
Chain of Cav1.2 (P54289 25-944 partner limits assumed): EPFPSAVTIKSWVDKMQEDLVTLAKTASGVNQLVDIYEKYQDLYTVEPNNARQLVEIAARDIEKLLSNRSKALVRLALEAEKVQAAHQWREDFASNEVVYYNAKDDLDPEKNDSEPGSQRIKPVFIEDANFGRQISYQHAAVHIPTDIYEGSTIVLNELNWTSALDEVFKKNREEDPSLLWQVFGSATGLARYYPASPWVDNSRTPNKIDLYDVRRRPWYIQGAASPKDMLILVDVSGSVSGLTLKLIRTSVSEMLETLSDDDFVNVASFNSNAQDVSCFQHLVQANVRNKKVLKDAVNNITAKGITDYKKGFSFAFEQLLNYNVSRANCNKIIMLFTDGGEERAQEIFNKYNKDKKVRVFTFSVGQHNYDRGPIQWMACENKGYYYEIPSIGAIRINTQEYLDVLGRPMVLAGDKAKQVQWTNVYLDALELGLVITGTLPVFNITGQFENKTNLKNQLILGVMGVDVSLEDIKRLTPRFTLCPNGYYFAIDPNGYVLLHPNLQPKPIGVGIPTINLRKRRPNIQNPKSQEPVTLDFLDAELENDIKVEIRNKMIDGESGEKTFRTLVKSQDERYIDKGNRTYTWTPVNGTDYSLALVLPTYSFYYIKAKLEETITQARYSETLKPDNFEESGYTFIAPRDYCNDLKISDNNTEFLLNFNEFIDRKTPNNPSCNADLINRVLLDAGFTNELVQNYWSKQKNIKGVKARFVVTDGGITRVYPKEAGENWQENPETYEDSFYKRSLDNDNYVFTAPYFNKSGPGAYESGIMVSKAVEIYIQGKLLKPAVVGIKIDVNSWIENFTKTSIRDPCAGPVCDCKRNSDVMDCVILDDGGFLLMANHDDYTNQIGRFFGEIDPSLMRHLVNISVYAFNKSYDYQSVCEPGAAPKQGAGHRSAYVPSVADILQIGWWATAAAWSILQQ
Chain of Cav1.2 (P54289 945-1103 partner limits assumed): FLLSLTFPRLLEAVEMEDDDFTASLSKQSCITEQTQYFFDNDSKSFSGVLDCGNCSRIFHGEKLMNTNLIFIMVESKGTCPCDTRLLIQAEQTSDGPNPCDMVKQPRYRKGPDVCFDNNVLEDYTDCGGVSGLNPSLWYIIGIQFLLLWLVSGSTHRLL
Chain of OCT1 (O15245 whole entry): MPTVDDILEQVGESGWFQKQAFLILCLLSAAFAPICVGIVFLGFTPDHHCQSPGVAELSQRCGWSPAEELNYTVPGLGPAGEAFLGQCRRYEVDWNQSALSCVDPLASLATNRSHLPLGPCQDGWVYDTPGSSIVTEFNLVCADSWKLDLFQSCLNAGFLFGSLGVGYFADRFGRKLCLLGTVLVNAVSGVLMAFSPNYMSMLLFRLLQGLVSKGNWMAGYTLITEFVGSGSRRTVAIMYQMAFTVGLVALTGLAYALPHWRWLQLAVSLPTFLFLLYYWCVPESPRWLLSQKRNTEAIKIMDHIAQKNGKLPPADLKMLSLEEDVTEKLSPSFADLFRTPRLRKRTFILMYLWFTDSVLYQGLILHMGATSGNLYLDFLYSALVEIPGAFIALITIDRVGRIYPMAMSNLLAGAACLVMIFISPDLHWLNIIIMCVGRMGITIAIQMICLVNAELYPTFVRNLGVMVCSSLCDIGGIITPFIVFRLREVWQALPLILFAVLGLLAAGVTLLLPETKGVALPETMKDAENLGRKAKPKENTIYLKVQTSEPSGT
T1 sequence (P43681 27-627): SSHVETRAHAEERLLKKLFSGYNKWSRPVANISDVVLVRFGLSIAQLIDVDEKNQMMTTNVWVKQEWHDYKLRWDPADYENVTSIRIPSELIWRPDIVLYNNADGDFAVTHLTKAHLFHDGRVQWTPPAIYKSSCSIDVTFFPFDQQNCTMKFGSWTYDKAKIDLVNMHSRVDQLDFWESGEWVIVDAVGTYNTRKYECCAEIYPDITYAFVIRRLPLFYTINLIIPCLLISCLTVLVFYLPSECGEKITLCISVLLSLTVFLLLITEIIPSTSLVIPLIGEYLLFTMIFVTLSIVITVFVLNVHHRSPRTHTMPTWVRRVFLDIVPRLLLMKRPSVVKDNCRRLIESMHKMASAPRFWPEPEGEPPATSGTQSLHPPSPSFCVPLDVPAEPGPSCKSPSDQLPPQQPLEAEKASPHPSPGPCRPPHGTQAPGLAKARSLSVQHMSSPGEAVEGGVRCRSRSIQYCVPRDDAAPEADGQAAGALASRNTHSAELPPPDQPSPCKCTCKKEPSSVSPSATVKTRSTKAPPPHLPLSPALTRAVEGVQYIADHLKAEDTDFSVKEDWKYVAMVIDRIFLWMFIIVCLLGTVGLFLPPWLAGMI
T1 sequence (P17787 26-502): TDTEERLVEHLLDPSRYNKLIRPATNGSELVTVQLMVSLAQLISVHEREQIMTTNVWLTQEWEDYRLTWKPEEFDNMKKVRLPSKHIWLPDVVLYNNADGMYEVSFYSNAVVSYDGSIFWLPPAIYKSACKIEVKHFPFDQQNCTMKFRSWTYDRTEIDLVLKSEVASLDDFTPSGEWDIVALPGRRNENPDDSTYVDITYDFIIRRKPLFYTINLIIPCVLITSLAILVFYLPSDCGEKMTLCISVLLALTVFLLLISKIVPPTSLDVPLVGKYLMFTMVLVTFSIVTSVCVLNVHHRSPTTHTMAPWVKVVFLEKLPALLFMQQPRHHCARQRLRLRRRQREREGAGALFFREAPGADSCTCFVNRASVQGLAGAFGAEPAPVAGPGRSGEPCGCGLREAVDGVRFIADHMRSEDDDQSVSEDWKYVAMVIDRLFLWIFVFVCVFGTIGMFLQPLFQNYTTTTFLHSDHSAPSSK

For the compound `O=C(Cc1cncc(-n2cc(Cl)c3cc(Cl)cc(Cl)c32)c1)N[C@@H]1COC[C@H]1O` [Compound 661], the “Reversal of mechanical PWT” value in series [1] was 27.6%. The “Modified Irwin FOB” value in the series with rats [2] is recorded as “no effects up to 300 mg/kg”. For the same compound, in the series on rats [3], the “Rotarod performance” value is recorded as “no effects on rotarod performance”.
For `O=C(Cc1nccc(-n2cc(Cl)c3cc(Cl)cc(Cl)c32)n1)NC1COCC1O` (stereo not shown) [Compound 760], the P-gp substrate result on P-gp was “not a transporter substrate or a poor substrate”. For the same compound, at OCT1, the OCT1 substrate entry is reported as “not a transporter substrate”. Further, the “Effect on nAChR(a4/b2)” value at nAChR(a4/b2) is given as “no effect”. Moreover, the IC50 on Cav1.2 was 2990 nM.

For the origin of these results see patent US20260327211A1, “MODULATORS OF A POTASSIUM CHANNEL AND OF TRPV1 CHANNEL AND USES THEREOF” (Bsense Bio Therapeutics Ltd., priority 2023, published 2026).
